Where a name gives a salt, the structure may show the parent alone.
Assays:
Rat NPY5 Receptor = molecular target: T1, Rat NPY5 Receptor (Rattus norvegicus, UniProt Q63634); assay: Rat NPY5 Receptor Binding Assay; details: for IC50: [125I]PYY, read-out: rNPY5 IC50; for inhibition at 10 µM: values marked *, read-out: rNPY5 percent inhibition at 10 μM
T1 sequence (Q63634 1-445): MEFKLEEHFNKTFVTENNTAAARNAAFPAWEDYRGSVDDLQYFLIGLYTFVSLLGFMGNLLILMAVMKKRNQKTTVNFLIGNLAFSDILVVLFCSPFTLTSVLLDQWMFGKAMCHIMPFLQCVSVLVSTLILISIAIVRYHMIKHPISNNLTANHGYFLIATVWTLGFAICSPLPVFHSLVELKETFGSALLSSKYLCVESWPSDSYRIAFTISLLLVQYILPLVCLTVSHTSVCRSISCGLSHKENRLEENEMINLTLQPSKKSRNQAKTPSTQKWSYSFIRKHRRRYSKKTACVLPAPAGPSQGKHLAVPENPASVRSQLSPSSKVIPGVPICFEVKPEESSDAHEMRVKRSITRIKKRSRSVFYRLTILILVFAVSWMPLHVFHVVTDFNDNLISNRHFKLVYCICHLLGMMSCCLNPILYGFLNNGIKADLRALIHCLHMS

Human NPY2 receptor = molecular target: T2, Human NPY2 receptor (Homo sapiens, UniProt P49146); assay: Human NPY2 Receptor Binding Assay; details: [125I]PYY; read-out: hPPY2 IC50
T2 sequence (P49146 1-381): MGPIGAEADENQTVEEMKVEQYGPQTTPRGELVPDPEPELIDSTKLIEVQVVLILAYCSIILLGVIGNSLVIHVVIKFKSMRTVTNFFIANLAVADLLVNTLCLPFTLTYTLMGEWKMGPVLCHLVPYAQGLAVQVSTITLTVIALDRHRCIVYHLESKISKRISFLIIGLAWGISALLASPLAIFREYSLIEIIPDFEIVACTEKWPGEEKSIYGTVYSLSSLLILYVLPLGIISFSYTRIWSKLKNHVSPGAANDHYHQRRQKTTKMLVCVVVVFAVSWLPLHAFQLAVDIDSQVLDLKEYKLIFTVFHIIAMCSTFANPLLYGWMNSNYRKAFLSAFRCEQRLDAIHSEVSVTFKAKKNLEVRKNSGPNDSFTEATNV
Experimental: Binding assays were performed on GF/C Millipore 96-well plates pretreated with 0.02% polyethylenimine. The binding buffer for rat Y2 binding is Krebs-Ringer bicarbonate (pH 7.4) containing 0.01% BSA and 0.005% bacitracin. Samples consist of membrane protein, 25 pM [125I]PYY and drug dilution. Nonspecific binding is defined by 1 μpM NPY.
After a 2 hour incubation at room temperature with constant mixing, the samples are aspirated on a vacuum manifold, and rinsed with ice-cold binding buffer. The amount of radioactivity in each well is quantitated with either gamma counting or liquid scintillation.

Human NPY4/PP1 receptor = Human NPY4/PP1 receptor (Homo sapiens, UniProt P50391); assay: Human NPY4/PP1 Receptor Binding Assay; details: [125I]human PP; read-out: hNPY4 IC50
Chain of Human NPY4/PP1 receptor (P50391 whole entry): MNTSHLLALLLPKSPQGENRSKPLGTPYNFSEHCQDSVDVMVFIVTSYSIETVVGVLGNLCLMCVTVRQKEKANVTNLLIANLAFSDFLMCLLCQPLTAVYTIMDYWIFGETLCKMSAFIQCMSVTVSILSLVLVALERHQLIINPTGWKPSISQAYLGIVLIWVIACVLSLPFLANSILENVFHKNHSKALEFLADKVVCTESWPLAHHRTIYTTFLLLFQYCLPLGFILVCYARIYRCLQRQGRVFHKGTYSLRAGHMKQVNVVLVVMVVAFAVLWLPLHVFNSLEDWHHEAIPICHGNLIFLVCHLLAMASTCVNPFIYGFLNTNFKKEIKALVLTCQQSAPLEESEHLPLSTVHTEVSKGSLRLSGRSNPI

Human NPY5 Receptor = molecular target: T3, Human NPY5 Receptor (Homo sapiens, UniProt Q15761); assay: Human NPY5 Receptor Binding Assay; details: [125I]PYY; read-out: hNPY5 IC50
T3 sequence (Q15761 1-445): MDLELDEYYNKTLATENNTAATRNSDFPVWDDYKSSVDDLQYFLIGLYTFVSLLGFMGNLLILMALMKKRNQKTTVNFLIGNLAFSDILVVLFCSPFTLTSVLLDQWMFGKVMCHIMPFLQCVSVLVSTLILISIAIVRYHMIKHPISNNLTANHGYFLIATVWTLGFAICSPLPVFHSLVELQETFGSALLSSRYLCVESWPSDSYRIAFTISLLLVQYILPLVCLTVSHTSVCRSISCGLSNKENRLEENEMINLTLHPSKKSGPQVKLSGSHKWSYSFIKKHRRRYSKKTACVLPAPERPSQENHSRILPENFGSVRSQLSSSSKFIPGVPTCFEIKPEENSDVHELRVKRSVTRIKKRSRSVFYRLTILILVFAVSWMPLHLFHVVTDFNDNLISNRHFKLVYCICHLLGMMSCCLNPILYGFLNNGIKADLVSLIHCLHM

Human NPY1 Receptor = molecular target: T4, Human NPY1 Receptor (Homo sapiens, UniProt P25929); assay: Human NPY1 Receptor Binding Assay; details: SK-N-MC cells, [125I]PYY; read-out: hNPY1 IC50
T4 sequence (P25929 1-384): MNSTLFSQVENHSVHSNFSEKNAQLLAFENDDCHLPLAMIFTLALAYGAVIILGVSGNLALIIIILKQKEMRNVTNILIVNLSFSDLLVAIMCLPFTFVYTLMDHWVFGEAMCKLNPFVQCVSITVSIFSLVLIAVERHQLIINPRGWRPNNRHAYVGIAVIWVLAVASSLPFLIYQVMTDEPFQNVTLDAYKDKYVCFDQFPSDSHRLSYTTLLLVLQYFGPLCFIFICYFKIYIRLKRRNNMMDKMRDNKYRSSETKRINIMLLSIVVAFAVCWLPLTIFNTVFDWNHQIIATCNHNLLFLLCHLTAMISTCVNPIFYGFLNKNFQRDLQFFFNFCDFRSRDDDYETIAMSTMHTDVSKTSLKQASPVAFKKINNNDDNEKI

Structure (SMILES): Cc1ccnc(SCC(=O)Nc2ccc(C3CCCCC3)cc2)n1 [Compound 5, N-(4-Cyclohexyl-phenyl)-2-(4-methyl-pyrimidin-2-ylsultanyl)-acetamide Hydrochloride]
- IC50 (Rat NPY5 Receptor): > 1 µM
- IC50 (Human NPY2 receptor): > 5 µM
- IC50 (Human NPY4/PP1 receptor): > 5 µM

Structure (SMILES): Cn1ccnc1SCC(=O)Nc1ccc(C(=O)c2ccccc2)cc1 [Compound 9]
- inhibition at 10 µM (Rat NPY5 Receptor): 93%
- IC50 (Human NPY2 receptor): > 5 µM
- IC50 (Human NPY5 Receptor): 0.44 µM

Structure (SMILES): O=C(CSc1nc2ccccc2[nH]1)Nc1ccc(C2CCCCC2)cc1 [Compound 11, 2-(1H-Benzoimidazol-2-ylsulfanyl)-N-(4-cyclohexyl-phenyl)-acetamide]
- inhibition at 10 µM (Rat NPY5 Receptor): 95%
- IC50 (Human NPY2 receptor): > 5 µM
- IC50 (Human NPY5 Receptor): 0.5 µM

Structure (SMILES): O=C(CSc1nc2ccccc2[nH]1)Nc1ccc(C(=O)c2ccccc2)cc1 [Compound 12, 2-(1H-Benzoimidazol-2-ylsulfanyl)-N-(4-benzoyl-phenyl)-acetamide]
- inhibition at 10 µM (Rat NPY5 Receptor): 95%
- IC50 (Human NPY2 receptor): > 5 µM
- IC50 (Human NPY5 Receptor): 0.48 µM

Structure (SMILES): Nc1nc(O)c2[nH]c(SCC(=O)Nc3ccc(C4CCCCC4)cc3)nc2n1 [Compound 13, 2-(2-Amino-hydroxy-9H-purin-8-ylsuIfanyl)-N-(4-yclohexyl-phenyl)-acetamide]
- inhibition at 10 µM (Rat NPY5 Receptor): 71%
- IC50 (Human NPY2 receptor): > 5 µM
- IC50 (Human NPY5 Receptor): 5.6 µM

Structure (SMILES): Nc1nc(O)c2[nH]c(SCC(=O)Nc3ccc(C(=O)c4ccccc4)cc3)nc2n1 [Compound 14, 2-(2-Amino-hydroxy-9H-purin-ylsulfanyl)-N-(4-benzoyl-phenyl)-acetamide]
- inhibition at 10 µM (Rat NPY5 Receptor): 51%
- IC50 (Human NPY2 receptor): > 5 µM
- IC50 (Human NPY5 Receptor): > 10 µM

Structure (SMILES): O=C(CSc1nc(-c2ccccc2)c(-c2ccccc2)[nH]1)Nc1ccc(C2CCCCC2)cc1 [Compound 15, N-(4-Cyclohexyl-phenyl)-2-(4,5-diphenyl-1H-imidazol-2-ylsulfanyl)-acetamide]
- inhibition at 10 µM (Rat NPY5 Receptor): 66%
- IC50 (Human NPY2 receptor): > 5 µM
- IC50 (Human NPY5 Receptor): 9.8 µM

Structure (SMILES): O=C(CSc1nc(-c2ccccc2)c(-c2ccccc2)[nH]1)Nc1ccc(C(=O)c2ccccc2)cc1 [Compound 16, N-(4-Benzoyl-phenyl)-2-(4,5-diphenyl-1H-imidazol-2-ylsulfanyl)-acetamide]
- inhibition at 10 µM (Rat NPY5 Receptor): 80%
- IC50 (Human NPY2 receptor): > 5 µM
- IC50 (Human NPY5 Receptor): 3.6 µM

Structure (SMILES): Nc1nc(SCC(=O)Nc2ccc(C(=O)c3ccccc3)cc2)nc2[nH]ncc12 [Compound 69, 2-(4-Amino-1H-pyrazolo[3,4-d]pyrimidin-6-ylsulfanyl)-N-(4-benzoyl-phenyl)-acetamide]
- IC50 (Human NPY2 receptor): > 5 µM
- IC50 (Human NPY5 Receptor): 6.8 µM

Structure (SMILES): Nc1nc(SCC(=O)Nc2ccc(C(=O)c3ccccc3)cc2)nc(O)c1N=O [Compound 70, 2-(4-Amino-hydroxy-nitroso-pyrimidin-2-ylsulfanyl)-N-(4-benzoyl-phenyl)-acetamide]
- IC50 (Human NPY2 receptor): > 5 µM
- IC50 (Human NPY5 Receptor): > 10 µM

Structure (SMILES): O=C(CSc1nc2cc(Cl)ccc2s1)Nc1ccc(C(=O)c2ccccc2)cc1 [Compound 71, N-(4-Benzoyl-phenyl)-2-(5-chloro-benzothiazol-2-ylsulfanyl)-acetamide]
- IC50 (Human NPY2 receptor): > 5 µM
- IC50 (Human NPY5 Receptor): 1.3 µM

Structure (SMILES): Cc1cc(C)nc(SCC(=O)Nc2ccc(C(=O)c3ccccc3)cc2)n1 [Compound 72, N-(4-Benzoyl-yl)-2-(4,6-dimethyl-pyrimidin-2-ylsulfanyl)-acetamide]
- IC50 (Human NPY2 receptor): > 5 µM
- IC50 (Human NPY5 Receptor): 8.4 µM

Structure (SMILES): O=C(CSc1ncc[nH]1)Nc1ccc(C2CCCCC2)cc1 [Compound 136, N-(4-Cyclohexyl-phenyl)-2-(1H-imidazol-2-ylsulfanyl)-acetamide]
- inhibition at 10 µM (Rat NPY5 Receptor): 95%
- IC50 (Human NPY2 receptor): > 5 µM
- IC50 (Human NPY5 Receptor): 0.11 µM

Structure (SMILES): Cc1cc(-c2nnc(SCC(=O)Nc3ccccc3)n2C)no1 [Compound 150, 2-[4-Methyl-5-(5-methyl-isoxazol-3-yl)-4H-[1,2,4]triazol-3-ylsulfanyl]-N-phenyl-acetamide, reference compound]
- IC50 (Rat NPY5 Receptor): > 10 µM
- IC50 (Human NPY1 Receptor): > 5 µM
- IC50 (Human NPY4/PP1 receptor): > 5 µM
- IC50 (Human NPY5 Receptor): > 10 µM

Structure (SMILES): CC(C)c1ccc(NC(=O)CSc2nnc(CSc3cccs3)n2C)cc1 [Compound 153, reference compound]
- IC50 (Rat NPY5 Receptor): > 10 µM
- IC50 (Human NPY1 Receptor): > 5 µM
- IC50 (Human NPY4/PP1 receptor): > 5 µM
- IC50 (Human NPY5 Receptor): > 10 µM

Structure (SMILES): CCn1c(SCC(=O)Nc2cc(C)ccc2OC)nnc1C(F)(F)F [Compound 157, N-(2-Methoxy-5-methyl-phenyl)-2-(4-ethyl-5-trifluoromethyl-4H-[1,2,4]triazol-3-ylsulfanyl)-acetamide, reference compound]
- IC50 (Rat NPY5 Receptor): > 10 µM
- IC50 (Human NPY1 Receptor): > 5 µM
- IC50 (Human NPY4/PP1 receptor): > 5 µM
- IC50 (Human NPY5 Receptor): > 10 µM

Structure (SMILES): CC(C)c1ccc(NC(=O)CSc2nnc(Cc3ccsc3)n2C)cc1 [Compound 158, N-(4-isopropyl-phenyl)-2-(4-methyl-5-thiophen-3-ylmethyl-4H-[1,2,4]triazol-3-ylsulfanyl)-acetamide, reference compound]
- IC50 (Rat NPY5 Receptor): > 10 µM
- IC50 (Human NPY1 Receptor): > 5 µM
- IC50 (Human NPY4/PP1 receptor): > 5 µM
- IC50 (Human NPY5 Receptor): > 10 µM

Structure (SMILES): CSc1sc(-c2nnc(SCC(=O)Nc3ccc(Cl)cc3)n2C)c2c1C=CCC2 [Compound 159, N-(4-Chloro-phenyl)-2-[4-methyl-5-(3-methylsulfanyl-6,7-dihydro-benzo[c]thiophen-1-yl)-4H-[1,2,4]triazol-3-ylsulfanyl]-acetamide, reference compound]
- IC50 (Rat NPY5 Receptor): > 10 µM
- IC50 (Human NPY1 Receptor): > 5 µM
- IC50 (Human NPY4/PP1 receptor): > 5 µM
- IC50 (Human NPY5 Receptor): > 10 µM

Structure (SMILES): Cc1cc(-c2nc(C)c(-c3nnc(SCC(=O)Nc4ccc(C(C)C)cc4)n3C)s2)no1 [Compound 177, N-(4-isopropyl-phenyl)-2-(4-methyl-5-[4-methyl-2-(5-methyl-isoxazol-3-yl)-thiazol-5-yl]-4H-[1,2,4]-triazol-3-ylsulfanyl]-acetamide, reference compound]
- IC50 (Human NPY2 receptor): > 5 µM
- IC50 (Human NPY4/PP1 receptor): > 5 µM
- IC50 (Human NPY5 Receptor): > 10 µM

Structure (SMILES): CCCCCCCCCCCc1nnc(SCC(=O)Nc2ccc(Cl)cc2)n1-c1ccccc1C(F)(F)F [Compound 178, N-(A-Chloro-phenyl)-2-[4-(2-trifluoromethyl-phenyl)-5-undecyl-4H-[1,2,4]triazol-3-ylsulfanyl]-acetamide, reference compound]
- IC50 (Human NPY2 receptor): > 5 µM
- IC50 (Human NPY4/PP1 receptor): > 5 µM
- IC50 (Human NPY5 Receptor): > 10 µM

Structure (SMILES): CCCCCCCCCCCc1nnc(SCC(=O)Nc2ccc(C(C)C)cc2)n1-c1ccccc1C(F)(F)F [Compound 179, reference compound]
- IC50 (Human NPY2 receptor): > 5 µM
- IC50 (Human NPY4/PP1 receptor): > 5 µM
- IC50 (Human NPY5 Receptor): > 10 µM

Structure (SMILES): CC(C)n1c(SCC(=O)Nc2ccc(Cl)cc2)nc2cc(C(F)(F)F)ccc21 [Compound 180, N-(4-Chloro-phenyl]-2-(1-isopropyl-5-trifluoromethy-1H-benzolmidazol-2-ylsulfanyl)-acetamide, reference compound]
- IC50 (Human NPY2 receptor): > 5 µM
- IC50 (Human NPY4/PP1 receptor): > 5 µM
- IC50 (Human NPY5 Receptor): > 10 µM

Structure (SMILES): CCCCCn1c(O)nnc1SCC(=O)Nc1ccc(Cl)cc1 [Compound 181, N-(4-Chloro-phenyl)-2-(5-hydroxy-4-pentyl-4H-[1,2,4]triazo-3-ylsulfanyl)-acetamide, reference compound]
- IC50 (Human NPY2 receptor): > 5 µM
- IC50 (Human NPY4/PP1 receptor): > 5 µM
- IC50 (Human NPY5 Receptor): > 10 µM

Structure (SMILES): Cc1ccc(SCC(=O)Nc2ccc(C3CCCCC3)cc2)cc1 [Compound 183, reference compound]
- IC50 (Rat NPY5 Receptor): 1.2 µM
- IC50 (Human NPY2 receptor): > 5 µM
- IC50 (Human NPY4/PP1 receptor): > 5 µM
- IC50 (Human NPY5 Receptor): 1.3 µM
